The source of these data is patent US20260116910A1, “POLYCYCLIC COMPOUNDS AND METHODS THEREOF” (HEPAITECH (BEIJING) BIOPHARMA TECHNOLOGY CO., LTD., priority 2021, published 2026).

The target of one assay is T1, human FXR (NR1H4) (Homo sapiens, UniProt Q96RI1).
T1 sequence (Q96RI1 1-476 isoform Q96RI1-1): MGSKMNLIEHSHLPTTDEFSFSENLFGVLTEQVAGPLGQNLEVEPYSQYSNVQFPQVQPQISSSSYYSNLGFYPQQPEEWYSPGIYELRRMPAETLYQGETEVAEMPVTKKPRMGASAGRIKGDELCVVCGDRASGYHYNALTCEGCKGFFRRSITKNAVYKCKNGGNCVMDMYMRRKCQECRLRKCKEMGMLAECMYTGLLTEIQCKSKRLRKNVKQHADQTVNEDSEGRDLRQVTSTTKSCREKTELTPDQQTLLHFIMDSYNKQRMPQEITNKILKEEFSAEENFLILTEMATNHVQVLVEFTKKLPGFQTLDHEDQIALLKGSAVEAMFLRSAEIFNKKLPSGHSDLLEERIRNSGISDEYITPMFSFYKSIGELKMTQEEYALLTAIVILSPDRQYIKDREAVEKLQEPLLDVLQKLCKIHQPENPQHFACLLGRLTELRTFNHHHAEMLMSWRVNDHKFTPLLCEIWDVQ
Put plainly: Human FXR (NR1H4) agonist assessment, FXRE-NanoLuc reporter in HEK293T cells. In kind it is cell-based. An outline of the steps:
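Read-out was NanoLuc luminescence in culture medium, measured 5 min after adding coelenterazine. Cells were HEK293T stably carrying human FXR and an FXRE reporter, exposed to compound for 24 hr at 37 °C. Vehicle was 0.01% DMSO. EC50 was obtained from sigmoid fits of gradient dilutions.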

The target in another assay is MRGPRX4 (Homo sapiens, UniProt Q96LA9). Kind of assay: MRGPRX4 activation, Fluo-8 Ca2+ FLIPR assay in HEK293T cells stably expressing MRGPRX4. The class given is cell-based. An outline of the steps:
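Response measured as dF/F0: 30 s baseline, then 150 s after compound addition on FLIPR Tetra, in HHBS after 40-60 min room-temperature loading with 2 μM Fluo-8 AM.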

Setting [1] is: FXR activation, HEK293T FXRE-NanoLuc reporter, 24 hr, read-out: EC50.
The mark [2] stands for this setting: MRGPRX4 activation, Ca2+ fluorescence, no activation in tested range reported as III, read-out: Activity (EC50 μM).
Setting [3] is: FXR activation, HEK293T FXRE-NanoLuc reporter, 24 hr.

As a reminder, the EC50 is the concentration that produces a half-maximal response.

The structures appear in SMILES notation. Values joined by “and” are separate entries in the source; they are usually repeats but may differ in a detail not shown here. Equal entries are not always repeated. Where two headings read alike, the source gives them in different places.

MRGPRX4, sequence (Q96LA9 whole entry): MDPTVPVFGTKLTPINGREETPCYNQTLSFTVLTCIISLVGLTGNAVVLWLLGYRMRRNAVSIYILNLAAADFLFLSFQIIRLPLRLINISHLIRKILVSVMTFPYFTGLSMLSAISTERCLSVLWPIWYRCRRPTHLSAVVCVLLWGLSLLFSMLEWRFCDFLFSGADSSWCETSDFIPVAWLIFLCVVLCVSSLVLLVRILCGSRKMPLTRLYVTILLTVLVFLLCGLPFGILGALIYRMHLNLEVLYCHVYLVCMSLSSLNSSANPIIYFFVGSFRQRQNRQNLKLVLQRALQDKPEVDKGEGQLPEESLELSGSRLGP

For `CC[C@H]1[C@@H](O)[C@@H]2[C@H](CC[C@]3(C)[C@@H]([C@H](C)CCC(=O)O)CC[C@@H]23)[C@@]2(C)CCCC[C@@H]12` [compound 10], at human FXR (NR1H4), the “Efficacy (maximum measured induction of NanoLuc, normalized to CDCA set as 100%)” value is listed as “C (key: A: efficacy >400%; B: 300%<efficacy <=400%; C: 100%<efficacy <=300%; D: efficacy <=100%)”. Moreover, the EC50 at human FXR (NR1H4) (setting [1]) was 1 to 10 µM; at MRGPRX4 (setting [2]), over 100 µM. Also, the “MRGPRX4 activation, fluorescence change (dF/F0), Average” value (shortened to “MRGPRX4 activation, fluorescence change”) at MRGPRX4 (Conc. (Log[M]) −4) is recorded as 0.019; at MRGPRX4 (Conc. (Log[M]) −4.5), −0.031; on MRGPRX4 (Conc. (Log[M]) −5), −0.037; at MRGPRX4 (Conc. (Log[M]) −5.5), −0.032; at MRGPRX4 (Conc. (Log[M]) −6), −0.064; at MRGPRX4 (Conc. (Log[M]) −7), −0.043. The “MRGPRX4 activation, fluorescence change” value at MRGPRX4 (Conc. (Log[M]) −8) is on record as −0.045; at MRGPRX4 (Conc. (Log[M]) −9), −0.048.

Take `C[C@H](CCC(=O)O)[C@H]1CC[C@H]2[C@@H]3CC[C@@H]4CC(=O)CC[C@]4(C)[C@H]3CC[C@]12C` [compound 16]: the EC50 was over 10 µM at human FXR (NR1H4) and under 50 µM on MRGPRX4. For the same compound, on human FXR (NR1H4) (setting [3]), the “Efficacy (maximum measured induction of NanoLuc, normalized to CDCA set as 100%)” value was “C (100%<efficacy <=300%)”. The “MRGPRX4 activation, fluorescence change” value is given as 0.416 at MRGPRX4 (Conc. (Log[M]) −4); 0.322 on MRGPRX4 (Conc. (Log[M]) −4.5); 0.130 at MRGPRX4 (Conc. (Log[M]) −5); −0.020 on MRGPRX4 (Conc. (Log[M]) −5.5); −0.010 at MRGPRX4 (Conc. (Log[M]) −6); 0.013 on MRGPRX4 (Conc. (Log[M]) −7). For the same compound, the “MRGPRX4 activation, fluorescence change” value is recorded as 0.012 on MRGPRX4 (Conc. (Log[M]) −8) and −0.005 on MRGPRX4 (Conc. (Log[M]) −9).

Consider `C[C@H](CCC(=O)O)[C@H]1CC[C@H]2[C@@H]3CC[C@@H]4CCCC[C@]4(C)[C@H]3CC[C@]12C` [compound 17], for which the “Efficacy (maximum measured induction of NanoLuc, normalized to CDCA set as 100%)” value on human FXR (NR1H4) is recorded as “B (key: A: efficacy >400%; B: 300%<efficacy <=400%; C: 100%<efficacy <=300%; D: efficacy <=100%)”. For the same compound, the results for the EC50 on human FXR (NR1H4) (setting [1]) and at MRGPRX4 (setting [2]) were 1 to 10 µM and under 50 µM, respectively. Besides, at MRGPRX4 (Conc. (Log[M]) −4), the “MRGPRX4 activation, fluorescence change” value is 0.036 and 0.042.

For the compound `CC(=O)CC[C@@H](C)[C@H]1CC[C@H]2[C@@H]3CC[C@@H]4CCCC[C@]4(C)[C@H]3CC[C@]12C` [compound 21], the “Efficacy (maximum measured induction of NanoLuc, normalized to CDCA set as 100%)” value at human FXR (NR1H4) (setting [3]) is given as “C (100%<efficacy <=300%)”. Further, the EC50 is 1 to 10 µM at human FXR (NR1H4) (setting [1]) and over 100 µM at MRGPRX4 (setting [2]).

As to `CC[C@H]1[C@@H](O)[C@@H]2[C@H](CC[C@]3(C)[C@@H]([C@H](C)CC(=O)O)CC[C@@H]23)[C@@]2(C)CCCC[C@@H]12` [compound 26], the “Efficacy (maximum measured induction of NanoLuc, normalized to CDCA set as 100%)” value at human FXR (NR1H4) (setting [3]) is given as “C (100%<efficacy <=300%)”. Besides, the results for the EC50 at human FXR (NR1H4) (setting [1]) and on MRGPRX4 (setting [2]) were over 10 µM and over 100 µM, respectively. The “MRGPRX4 activation, fluorescence change” value was −0.070 at MRGPRX4 (Conc. (Log[M]) −4); −0.059 at MRGPRX4 (Conc. (Log[M]) −4.5); −0.090 on MRGPRX4 (Conc. (Log[M]) −5); −0.062 on MRGPRX4 (Conc. (Log[M]) −5.5); −0.067 at MRGPRX4 (Conc. (Log[M]) −6); −0.072 on MRGPRX4 (Conc. (Log[M]) −7). Moreover, the “MRGPRX4 activation, fluorescence change” value on MRGPRX4 (Conc. (Log[M]) −8) was −0.090; at MRGPRX4 (Conc. (Log[M]) −9) it was −0.084.
